Laboratory results from patent publication US8512970B2, “Rapid bioluminescence detection assay” (The Secretary of State for Health, priority 2009, dated 2013).
pIC50: −log10 of the molar value. “Also recorded” adds a separate entry of the source. Where a name gives a salt, the structure may show the parent alone.

What was measured:
[1] = biological target: T1, yeast AK (AK from Saccharomyces cerevisiae) (Saccharomyces cerevisiae, UniProt P07170); test: Distinguishing reporter adenylate kinases from yeast adenylate kinase (FIG. 7B); assay type: biochemical
T1 construct: purchased Sigma
T1 sequence (P07170 whole entry): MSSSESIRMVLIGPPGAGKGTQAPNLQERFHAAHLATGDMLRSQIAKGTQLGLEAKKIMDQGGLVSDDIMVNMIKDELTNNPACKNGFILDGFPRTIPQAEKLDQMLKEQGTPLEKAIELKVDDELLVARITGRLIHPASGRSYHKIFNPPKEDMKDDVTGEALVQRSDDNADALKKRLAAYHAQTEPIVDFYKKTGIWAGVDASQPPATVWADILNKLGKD

[2] = biological target: T2, Rabbit myokinase (muscle adenylate kinase) (Oryctolagus cuniculus, UniProt P00569); test: Inhibition of non-reporter (endogenous) tissue kinase by Ap5a, ATP detected with luciferin/luciferase
T2 sequence (P00569 1-194): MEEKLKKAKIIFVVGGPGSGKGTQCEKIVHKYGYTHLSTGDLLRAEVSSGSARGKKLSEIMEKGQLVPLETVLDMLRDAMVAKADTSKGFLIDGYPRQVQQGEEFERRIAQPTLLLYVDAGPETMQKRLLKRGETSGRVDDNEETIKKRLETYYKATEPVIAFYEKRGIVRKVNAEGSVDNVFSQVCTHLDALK
Experimental: (§1) The reporter adenylate kinases from S. acidocaldarius or T. maritima were purified as described previously. Rabbit myokinase (muscle adenylate kinase) was obtained from Sigma. 100 ng of each enzyme was incubated with the inhibitor at the concentrations shown in reaction buffer (15 mM MgAc, 10 mM tris, 1 mM EDTA pH 7.75) for 5 minutes. ADP was added to a final concentration of 70 μM and the reaction incubated before addition of luciferin and luciferase.

[3] = biological target: T3, adenylate kinase from T. maritima (Thermotoga maritima, UniProt Q9X1I8); test: Inhibition of reporter adenylate kinase by Ap5a, ATP detected with luciferin/luciferase
T3 sequence (Q9X1I8 1-220): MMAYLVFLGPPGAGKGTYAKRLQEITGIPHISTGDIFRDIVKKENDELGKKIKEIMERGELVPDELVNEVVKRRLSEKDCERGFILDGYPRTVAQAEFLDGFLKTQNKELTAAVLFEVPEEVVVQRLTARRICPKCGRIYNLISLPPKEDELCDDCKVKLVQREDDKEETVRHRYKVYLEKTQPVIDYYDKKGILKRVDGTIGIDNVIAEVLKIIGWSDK
Experimental: as §1

[4] = biological target: adenylate kinase from S. acidocaldarius (Sulfolobus acidocaldarius, UniProt P35028); test: as above
adenylate kinase from S. acidocaldarius, sequence (P35028 whole entry): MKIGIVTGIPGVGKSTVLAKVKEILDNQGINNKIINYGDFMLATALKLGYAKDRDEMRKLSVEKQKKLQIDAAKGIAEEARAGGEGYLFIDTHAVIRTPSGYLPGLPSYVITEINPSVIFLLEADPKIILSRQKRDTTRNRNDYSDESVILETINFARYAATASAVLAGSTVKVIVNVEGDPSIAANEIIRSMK
Experimental: as §1

luciferase = luciferase (Photinus pyralis, UniProt P08659); test: Effect of inhibitor on luciferase; assay type: biochemical
luciferase, sequence (P08659 whole entry, species assumed): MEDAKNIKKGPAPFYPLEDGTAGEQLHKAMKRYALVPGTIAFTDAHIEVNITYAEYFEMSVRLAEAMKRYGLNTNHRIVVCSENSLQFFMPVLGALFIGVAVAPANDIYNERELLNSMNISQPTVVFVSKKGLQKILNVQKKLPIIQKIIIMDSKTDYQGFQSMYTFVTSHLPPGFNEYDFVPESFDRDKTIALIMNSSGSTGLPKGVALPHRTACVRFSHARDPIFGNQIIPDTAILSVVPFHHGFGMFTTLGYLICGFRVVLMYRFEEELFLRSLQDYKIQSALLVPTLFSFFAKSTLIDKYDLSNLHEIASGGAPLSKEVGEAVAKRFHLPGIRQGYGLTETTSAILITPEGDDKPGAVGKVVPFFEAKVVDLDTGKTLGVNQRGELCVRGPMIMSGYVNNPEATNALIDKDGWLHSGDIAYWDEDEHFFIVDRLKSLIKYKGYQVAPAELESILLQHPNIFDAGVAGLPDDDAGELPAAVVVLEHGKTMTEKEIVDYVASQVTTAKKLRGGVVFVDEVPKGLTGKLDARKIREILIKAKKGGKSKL

Molecule	distinguishing bacterial and archaeal reporter adenylate kinases from enzyme of fungal origin (yeast AK) [1]	pIC50 [2]	pIC50 [3]	pIC50 [4]	effect on the activity of the luciferase (luciferase)
Diadenosine hexaphosphate [Ap6A]	do not allow for an assay to distinguish	–	–	–	–
Nc1ncnc2c1ncn2[C@@H]1O[C@H](COP(=O)(O)OP(=O)(O)OP(=O)(O)OP(=O)(O)OP(=O)(O)OC[C@H]2O[C@@H](n3cnc4c(N)ncnc43)[C@H](O)[C@@H]2O)[C@@H](O)[C@H]1O [Ap5A, Diadenosine pentaphosphate pentasodium salt]	can still be used to distinguish; also recorded: discriminates reporter kinase from non-reporter kinase	7.22	5.37	4.98	does not have a detrimental effect
Nc1ncnc2c1ncn2[C@@H]1O[C@H](COP(=O)(O)OP(=O)(O)OP(=O)(O)OP(=O)(O)OC[C@H]2O[C@@H](n3cnc4c(N)ncnc43)[C@H](O)[C@@H]2O)[C@@H](O)[C@H]1O [Ap4A, Diadenosine tetraphosphate]	do not allow for an assay to distinguish	–	–	–	–
